“Also recorded” adds a separate entry of the source.
These compounds were tested on human skin (assay: Colorimeter (Minolta CR-10) L* a* b* readings of sunless tan on forearm skin). Conditions: 5% additive with 5% DHA and 5% MSM; Table 1 series.
Assay type: in vivo
Method: An equal amount of each formula solution (approximately 150 mg.) from Table 1 was applied to 2″×2″ adjacent sections of forearm, allowed to dry and covered with clothing for the duration of the testing. The application areas were visibly the same color prior to treatment with the solutions and this was confirmed via calorimeter readings. Readings were typically made 24-48 hours post application of the test solutions. Three calorimeter readings were made of each treatment area with a Minolta CR-10 adapted for human skin readings and the readings were averaged. All eight formulas shown in Table 1 were evaluated on several individuals with Fitzpatrick skin types I-III. Although the absolute values for the tanning responses differed between individuals, the relative differences between formulations in terms of tanning response were the same. Typical results of the testing of one subject were recorded in average L* a* b* color values and are shown in Table 2 along with baseline skin color. […]
The results shown in Table 12 were confirmed by several repeat experiments conducted on several relatively light-skin individuals (Fitzpatrick Type I-III). The data are based on calculation of the average increase in skin darkening based on skin color changes measured by the colorimeter “L” or light-dark value [(Δ L)]; the average increase in skin hue intensity measured simultaneously by both the colorimeter “a*” or red value and the colorimeter “b*” or yellow value (Δ√a^2+b^2); and, the average increase in total tan which adds the changes in darkness and hue increases [(Δ L)+Δ√a^2+b^2].
For `CCCC(O)CO` (stereo not drawn) [pentylene glycol, 1,2-pentanediol], the “effect of additive on tanning response of DHA and MSM” value (“effect of additive” below) was “darker tanning responses; also recorded: significantly increase”.
`CC(O)CO` (stereo not drawn) [propylene glycol] was tested, and the “effect of additive” value was “darker tanning responses”.
For `OCCCCO` [butylene glycol], the “effect of additive” value was “darker tanning responses; also recorded: significantly increase”.
